Reference: article PMC3173295, “Biochemical characterization of trans-sialidase TS1 variants from Trypanosoma congolense” (BMC Biochemistry, 2011)

How the values were obtained:
Assay type in all cases: biochemical, Trypanosoma congolense
T. congolense TS1b [1] = system: T1, T. congolense TS1b; test: HPAEC-PAD quantification of […]'Sia-Gal-MU, Michaelis-Menten fit; conditions: acceptor substrate; donor 50 nmol 3'SL in 50 μL (Figure 7 legend; text b29 says fetuin, 600 μM bound Sia); 37°C, 30 min; read-out: Acceptor substrates / Gal-MU / KM
T1 construct: residues 17-732 without signal peptide and GPI anchor region; C-terminal 3C site, SNAP and Strep tags; secreted from CHO Lec1 cells; 120 kDa with tags

T. congolense TS1 e-1 [2] = system: T2, T. congolense TS1 e-1; test: as above; conditions: acceptor substrate; donor 50 nmol 3'SL in 50 μL (Figure 7 legend; text b29 says fetuin, 600 μM bound Sia); 37°C, 30 min; read-out: Acceptor substrates / Gal-MU / KM
T2 construct: residues 17-732 without signal peptide and GPI anchor region; C-terminal 3C site, SNAP and Strep tags; secreted from CHO Lec1 cells; 120 kDa with tags

T. congolense TS1b [3] = system: T1, T. congolense TS1b; test: HPAEC-PAD quantification of […]'-sialyllactose, Michaelis-Menten fit; conditions: acceptor substrate; donor fetuin (600 μM bound Sia); pH 7.4-7.5, 37°C, 30 min; read-out: Acceptor substrates / Lactose / KM
T. congolense TS1 e-1 [4] = system: T2, T. congolense TS1 e-1; test: as above; conditions: acceptor substrate; donor fetuin (600 μM bound Sia); pH 7.4-7.5, 37°C, 30 min; read-out: Acceptor substrates / Lactose / KM

| Compound | Km (T. congolense TS1b [1]) | Km (T. congolense TS1 e-1 [2]) | Km (T. congolense TS1b [3]) | Km (T. congolense TS1 e-1 [4]) |
| --- | --- | --- | --- | --- |
| Cc1cc(=O)oc2cc(O[C@@H]3O[C@H](CO)[C@H](O)[C@H](O)[C@H]3O)ccc12 [Gal-MU, 4-methylumbelliferyl ß-D-galactoside] | 57 ± 14 µM | 74 ± 17 µM | – | – |
| OC[C@H]1O[C@@H](O[C@H]2[C@H](O)[C@@H](O)C(O)O[C@@H]2CO)[C@H](O)[C@@H](O)[C@H]1O (stereo partly shown) [lactose] | – | – | 1680 ± 101 µM | 727 ± 48 µM |
